Read-outs that look alike come from different tables or passages of the source.
Columns and labels:
[1] = system: neuropathic pain model (Chung model); experiment: Neuropathic pain model (Chung model, SNL), paw withdrawal threshold; assay type: in vivo, rat; conditions: for pain suppression efficacy, antagonist alone: single administration, ORG-25543 10 or 20 mg/kg, FIG. 25(a)
formalin model = experiment: Formalin pain model, licking and shaking; assay type: in vivo, rat; conditions: for pain relieving effect, antagonist alone: single administration, FIG. 26(a); for pain behavior (licking and shaking) induced by formalin: 12.5, 25 and 50 mg/kg, 5% formalin i.pl., FIGS. 23 and 24
GlyT2 = biological target: T1, GlyT2 (Rattus norvegicus, UniProt P58295); experiment: FLIPR membrane potential assay for GlyT2 target activity (T-rex-293-rGlyT2 cells); assay type: cell-based; conditions: read-out: GlyT2 % inhibition
T1 construct: expressed in transfected cells
T1 sequence (P58295 1-799): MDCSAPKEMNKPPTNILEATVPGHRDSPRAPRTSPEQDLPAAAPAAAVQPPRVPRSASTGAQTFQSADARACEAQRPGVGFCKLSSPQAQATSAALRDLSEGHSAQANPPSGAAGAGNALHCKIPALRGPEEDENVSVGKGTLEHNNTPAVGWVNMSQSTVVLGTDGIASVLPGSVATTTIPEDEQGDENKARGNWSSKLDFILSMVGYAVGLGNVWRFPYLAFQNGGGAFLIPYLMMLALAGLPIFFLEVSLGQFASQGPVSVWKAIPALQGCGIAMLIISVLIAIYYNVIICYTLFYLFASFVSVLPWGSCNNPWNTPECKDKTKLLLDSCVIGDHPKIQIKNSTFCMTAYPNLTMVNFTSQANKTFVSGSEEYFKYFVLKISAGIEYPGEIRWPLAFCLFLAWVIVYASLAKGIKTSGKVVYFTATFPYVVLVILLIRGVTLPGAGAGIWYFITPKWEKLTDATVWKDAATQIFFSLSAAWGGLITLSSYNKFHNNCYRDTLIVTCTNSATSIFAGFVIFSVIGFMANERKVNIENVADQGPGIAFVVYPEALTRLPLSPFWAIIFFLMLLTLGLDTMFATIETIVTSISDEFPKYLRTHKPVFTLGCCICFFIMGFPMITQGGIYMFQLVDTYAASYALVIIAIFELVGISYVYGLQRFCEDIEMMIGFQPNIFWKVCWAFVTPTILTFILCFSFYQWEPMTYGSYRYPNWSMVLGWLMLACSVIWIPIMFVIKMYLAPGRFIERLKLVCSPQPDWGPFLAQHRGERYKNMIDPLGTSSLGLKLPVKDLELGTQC
Protocol: GlyT2 (Glycine transporter type 2) is an electrogenic carrier associated with Na^+/Cl^− ion transportation, primarily distributed around the spinal cord part, and has an important role in the transfer of a pain signal in the spinal cord.
In order to identify the fact that the novel compound of the present invention has GlyT2 targeting activity, a membrane potential assay was performed. FLIPR Membrane Potential Assay is used to measure ion channel modulation caused by an increase or decrease in fluorescence signal due to variations of cellular membrane potential.
First, pcDNA4/TO vector encoding GlyT2 of the rat in HEK293 cell was transfected to prepare a stable recombinant cell line, i.e., T-rex-293-rGlyT2. A […] (Greiner #655090) coated with poly-D-lysine was prepared, and the above recombinant cells (T-rex-293-rGlyT2) were seeded at 3.2×10^4/well therein using a medium containing 15 μg/ml of tetracycline. After this, incubation was conducted at 37° C. for 48 hours under 5% CO2 conditions to express GlyT2. 10 ml of assay buffer (1×HBSS, 20 mM HEPES, pH 7.4) was added to a blue dye solution and sufficiently dissolved therein to prepare a membrane potential dye solution. After removing the medium from the well showing GlyT2 expression, the membrane potential dye solution was added to the well in an amount of 100 μl/well and incubated for 20 minutes.
According to the FLIPR Membrane Potential Assay kit's protocol, SoftMax Pro Software of FlexStation 3 software (Molecular Devices, US) was set up. An extent of GlyT2 expression was determined such that the extent of cellular membrane depolarization relative to an administered amount of glycine during glycine treatment is indicated in relative fluorescence units (RFU), and RFU (Max-Min) is calculated by subtracting the minimum value from the maximum value of RFU. After firstly treating 10 uM of the novel compound according to the present invention, glycine was treated and RFU (Max-Min) for glycine administration was determined. Then, with the determined result, the extent of depolarization inhibition (% inhibition) was assessed for each compound, compared to a positive control.
The positive control used herein was ORG25543 (500 nM) having strong inhibitory efficacy specific to GlyT2.
For GlyT2 inhibitory efficacy, the efficacy of the compound ORG25543 (500 nM) was defined as 100%. Similarly, for 5HT2A inhibitory efficacy, the efficacy of MDL11939 (100 nM) was defined as 100%. Therefore, the target inhibitory efficacy of each compound was indicated in a relative value compared to the above defined efficacy.

5HT2A = 5HT2A (Homo sapiens, UniProt P28223); experiment: FLIPR calcium assay for 5HT2A target activity (transfected HEK293 cells); assay type: cell-based
Chain of 5HT2A (P28223 whole entry, species assumed): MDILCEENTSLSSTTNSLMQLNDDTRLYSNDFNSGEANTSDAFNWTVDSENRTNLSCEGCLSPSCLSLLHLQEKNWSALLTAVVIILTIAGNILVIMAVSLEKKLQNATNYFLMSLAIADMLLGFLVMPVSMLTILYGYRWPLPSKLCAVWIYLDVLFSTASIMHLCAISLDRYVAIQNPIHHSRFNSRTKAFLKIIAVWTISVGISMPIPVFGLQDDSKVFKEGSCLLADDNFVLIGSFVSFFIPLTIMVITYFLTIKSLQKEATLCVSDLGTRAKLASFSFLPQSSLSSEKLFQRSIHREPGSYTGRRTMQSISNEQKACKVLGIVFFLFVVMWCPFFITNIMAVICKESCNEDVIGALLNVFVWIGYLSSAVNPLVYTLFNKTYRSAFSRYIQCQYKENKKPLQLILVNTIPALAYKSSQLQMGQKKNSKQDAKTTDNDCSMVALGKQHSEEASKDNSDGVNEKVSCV

[2] = system: serotonin-derived itching; experiment: Itching model, serotonin-derived itching; assay type: in vivo, rat; conditions: 50 mg/kg s.c.; serotonin 25 μg/50 μl intradermal; vs naloxone 5 mg/kg intraperitoneal
[3] = system: poly-L-arginine-derived itching; experiment: Itching model, poly-L-arginine-derived itching; assay type: in vivo, rat; conditions: 50 mg/kg s.c.; poly-L-arginine 200 μg/50 μl intradermal; vs naloxone 5 mg/kg intraperitoneal
[4] = 10 uM compound, then glycine, relative to ORG25543 (500 nM) defined as 100%
[5] = HEK293, read-out: 5HT2A % inhibition
[6] = subcutaneous 50 mg/kg or oral 100 mg/kg, gabapentin 55 to 70 mg/kg intraperitoneal, FIGS. 1 to 22
[7] = HEK293, 10 uM compound, then serotonin, relative to MDL11939 (100 nM) defined as 100%, read-out: 5HT2A % inhibition

COc1cc(C(=O)NCC2(N(C)C)CCCC2)cc(OC)c1OCc1ccccc1 [ORG-25543, reference compound]
pain suppression efficacy, antagonist alone [1]: did not show pain suppression efficacy
pain suppression efficacy, antagonist alone ([1]; listed as ORG2553): no or very little pain relieving effect
pain relieving effect, antagonist alone (formalin model): no or very little pain relieving effect

CCCCOc1c(OC)cc(C(=O)NCC(c2ccc(OC)cc2)N(C)C)cc1OC (centres unmarked) [VVZ-024]
inhibition at 10 µM (GlyT2; [4]): 96.7%
inhibition at 10 µM (5HT2A; [5]): 70.5%
analgesic efficacy compared to GBP positive control [1, 6]: analgesic efficacy substantially equal to 0 °C superior to GBP

CCCCOc1c(OC)cc(C(=O)NCC2(N(C)CC)CCOCC2)cc1OC [VVZ-041]
inhibition at 10 µM (GlyT2; [4]): 79.2%
inhibition at 10 µM (5HT2A; [7]): 105%
analgesic efficacy compared to GBP positive control [1, 6]: analgesic efficacy substantially equal to 0 °C superior to GBP

CCCCOc1c(OC)cc(C(=O)NCC2(N(C)C)CCOCC2)cc1OC [VVZ-005]
inhibition at 10 µM (GlyT2): 101%
inhibition at 10 µM (5HT2A; [5]): 61.2%
analgesic efficacy compared to GBP positive control ([1]; rat, in vivo): analgesic efficacy substantially equal to 0 °C superior to GBP
pain behavior (licking and shaking) induced by formalin (formalin model): suppressing pain behavior induced by formalin
itching behavior (number and duration of scratching) induced by serotonin [2]: suppressing itching behavior
itching behavior (number and duration of scratching) induced by poly-L-arginine [3]: suppressing itching behavior

OC(c1ccccc1)C1CCN(CCc2ccccc2)CC1 (centres unmarked) [MDL 11,939, reference compound]
pain suppression efficacy, antagonist alone [1]: no or very little pain relieving effect
pain relieving effect, antagonist alone (formalin model): no or very little pain relieving effect

CCCCOc1c(OC)cc(C(=O)NCC2(NC)CCOCC2)cc1OC [VVZ-068]
inhibition at 10 µM (GlyT2; [4]): 105%
inhibition at 10 µM (5HT2A; [7]): 69.1%
analgesic efficacy compared to GBP positive control [1, 6]: analgesic efficacy substantially equal to 0 °C superior to GBP
pain behavior (licking and shaking) induced by formalin (formalin model): suppressing pain behavior induced by formalin
itching behavior (number and duration of scratching) induced by serotonin [2]: suppressing itching behavior
itching behavior (number and duration of scratching) induced by poly-L-arginine [3]: suppressing itching behavior

CN(C)C1(CNC(=O)c2ccc(OCc3ccccc3)cc2)CCOCC1 [VVZ-038]
inhibition at 10 µM (GlyT2): 108%
inhibition at 10 µM (5HT2A; [5]): 96.1%
analgesic efficacy compared to GBP positive control [1, 6]: analgesic efficacy substantially equal to 0 °C superior to GBP
